Assays:
Type in all cases: in vivo
[1] = system: field bindweed (Convolvulus arvensis); test: Test C; set-up: key: 0 was no effect; 100 was complete control; details: PREEMERGENCE
[2] = system: hairy beggarticks (Bidens pilosa); test: Test C; set-up: key: 0 was no effect; 100 was complete control; details: PREEMERGENCE
[3] = system: johnsongrass (Sorghum halepense); test: Test C; details: PREEMERGENCE
[4] = system: purple nutsedge (Cyperus rotundus); test: Test C; set-up: key: 0 was no effect; 100 was complete control; details: PREEMERGENCE
soybean (Glycine max) = test: Test C; set-up: key: 0 was no effect; 100 was complete control; details: PREEMERGENCE
[5] = system: sandbur (Cenchrus echinatus); test: Test E pre-/postemergence/post directed; set-up: key: 0 is no injury; 100 is complete control; details: POSTEMERGENCE, Rate 32 g/ha
Procedure, shortened: (§1)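 Greenhouse pot-grown plants; compound in non-phytotoxic solvent with surfactant applied preemergence to soil within one day of planting, postemergence at two to four leaf stage (three to twenty cm), or post-directed to plant base and soil. Visual injury rated 13 to 21 days after application, 0 (none) to 100 (complete control).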

[6] = system: bermudagrass (Cynodon dactylon); test: Test E pre-/postemergence/post directed; set-up: key: 0 is no effect; 100 is complete control; details: PREEMERGENCE
Procedure, shortened: as §1

[7] = system: common groundsel (Senecio vulgaris); test: Test E pre-/postemergence/post directed; set-up: key: 0 is no effect; 100 is complete control; details: PREEMERGENCE
Procedure, shortened: as §1

[8] = system: common purslane (Portulaca oleracea); test: Test E pre-/postemergence/post directed; set-up: key: 0 is no effect; 100 is complete control
Procedure, shortened: as §1

[9] = system: common ragweed (Ambrosia elatior); test: Test E pre-/postemergence/post directed; set-up: key: 0 is no effect; 100 is complete control; details: PREEMERGENCE
Procedure, shortened: as §1

[10] = system: dallisgrass (Paspalum dilatatum); test: Test E pre-/postemergence/post directed; set-up: key: 0 is no effect; 100 is complete control
Procedure, shortened: as §1

[11] = system: goosegrass (Eleusine indica); test: Test E pre-/postemergence/post directed; set-up: key: 0 is no effect; 100 is complete control
Procedure, shortened: as §1

[12] = system: guineagrass (Panicum maximum); test: Test E pre-/postemergence/post directed; set-up: key: 0 is no effect; 100 is complete control
Procedure, shortened: as §1

[13] = system: large crabgrass (Digitaria sanguinalis); test: Test E pre-/postemergence/post directed; set-up: key: 0 is no effect; 100 is complete control; details: PREEMERGENCE
Procedure, shortened: as §1

[14] = system: sourgrass (Trichachne insularis); test: Test E pre-/postemergence/post directed; set-up: key: 0 is no effect; 100 is complete control
Procedure, shortened: as §1

[15] = system: surinam grass (Brachiaria decumbens); test: Test E pre-/postemergence/post directed; set-up: key: 0 is no effect; 100 is complete control; details: PREEMERGENCE
Procedure, shortened: as §1

[16] = system: tall mallow (Malva sylvestris); test: Test E pre-/postemergence/post directed; set-up: key: 0 is no effect; 100 is complete control; details: PREEMERGENCE
Procedure, shortened: as §1

Cc1cnc(-n2ccc(C(F)(F)F)n2)nc1Cc1cccc(C(F)(F)F)c1 [Example 2, 5-methyl-4-[[3-(trifluoromethyl)phenyl]methyl]-2-[3-(trifluoromethyl)-1H-pyrazol-1-yl]pyrimidine]
90: Plant response rating, Dallisgrass ([10]; POSTEMERGENCE, Rate 250 g/ha) | Plant response rating, Dallisgrass ([10]; PREEMERGENCE, Rate 32 g/ha) | Plant response rating, Goosegrass ([11]; POSTEMERGENCE, Rate 250 g/ha) | Plant response rating, Guineagrass ([12]; POSTEMERGENCE, Rate 500 g/ha)
20: Plant response rating, Sourgrass ([14]; POSTEMERGENCE, Rate 64 g/ha) | Plant response rating, Sourgrass ([14]; POSTEMERGENCE, Rate 125 g/ha)
80: Plant response rating, Sourgrass ([14]; POSTEMERGENCE, Rate 500 g/ha)
5: Plant response rating, Johnsongrass ([3]; Rate 35 g/ha) | Plant response rating, Johnsongrass ([3]; Rate 70 g/ha) | Plant response rating, Guineagrass ([12]; POSTEMERGENCE, Rate 32 g/ha)
65: Plant response rating, Com. purslane ([8]; POSTEMERGENCE, Rate 32 g/ha) | Plant response rating, Com. purslane ([8]; POSTEMERGENCE, Rate 64 g/ha) | Plant response rating, Com. purslane ([8]; POSTEMERGENCE, Rate 125 g/ha)
40: Plant response rating, H. beggarticks ([2]; Rate 35 g/ha) | Plant response rating, H. beggarticks ([2]; Rate 70 g/ha) | Plant response rating, Soybean (soybean (Glycine max); Rate 140 g/ha) | Plant response rating, Dallisgrass ([10]; POSTEMERGENCE, Rate 64 g/ha) | Plant response rating, Sourgrass ([14]; POSTEMERGENCE, Rate 250 g/ha)
95: Plant response rating, Dallisgrass ([10]; POSTEMERGENCE, Rate 500 g/ha) | Plant response rating, Goosegrass ([11]; POSTEMERGENCE, Rate 500 g/ha) | Plant response rating, Goosegrass ([11]; PREEMERGENCE, Rate 32 g/ha)
30: Plant response rating, Field bindweed ([1]; Rate 70 g/ha)
50: Plant response rating, Guineagrass ([12]; POSTEMERGENCE, Rate 125 g/ha) | Plant response rating, Guineagrass ([12]; POSTEMERGENCE, Rate 250 g/ha) | Plant response rating, Guineagrass ([12]; PREEMERGENCE, Rate 32 g/ha) | Plant response rating, Guineagrass ([12]; PREEMERGENCE, Rate 64 g/ha)
70: Plant response rating, Com. purslane ([8]; POSTEMERGENCE, Rate 250 g/ha) | Plant response rating, Com. purslane ([8]; POSTEMERGENCE, Rate 500 g/ha) | Plant response rating, Dallisgrass ([10]; POSTEMERGENCE, Rate 125 g/ha)
75: Plant response rating, Goosegrass ([11]; POSTEMERGENCE, Rate 64 g/ha)
60: Plant response rating, Johnsongrass ([3]; Rate 140 g/ha) | Plant response rating, Goosegrass ([11]; POSTEMERGENCE, Rate 32 g/ha)
98: Plant response rating, Tall Mallow ([16]; Rate 32 g/ha)
10: Plant response rating, Dallisgrass ([10]; POSTEMERGENCE, Rate 32 g/ha) | Plant response rating, Sourgrass ([14]; POSTEMERGENCE, Rate 32 g/ha)
100: Plant response rating, Field bindweed ([1]; Rate 140 g/ha) | Plant response rating, H. beggarticks ([2]; Rate 140 g/ha) | Plant response rating, Bermudagrass ([6]; Rate 64 g/ha) | Plant response rating, Bermudagrass ([6]; Rate 125 g/ha) | Plant response rating, Bermudagrass ([6]; Rate 250 g/ha) | Plant response rating, Bermudagrass ([6]; Rate 500 g/ha) | Plant response rating, Com. groundsel ([7]; Rate 32 g/ha) | Plant response rating, Com. groundsel ([7]; Rate 64 g/ha) | Plant response rating, Com. groundsel ([7]; Rate 125 g/ha) | Plant response rating, Com. groundsel ([7]; Rate 250 g/ha) | Plant response rating, Com. groundsel ([7]; Rate 500 g/ha) | Plant response rating, Com. purslane ([8]; PREEMERGENCE, Rate 32 g/ha) | Plant response rating, Com. purslane ([8]; PREEMERGENCE, Rate 64 g/ha) | Plant response rating, Com. purslane ([8]; PREEMERGENCE, Rate 125 g/ha) | Plant response rating, Com. purslane ([8]; PREEMERGENCE, Rate 250 g/ha) | Plant response rating, Com. purslane ([8]; PREEMERGENCE, Rate 500 g/ha) | Plant response rating, Com. ragweed ([9]; Rate 32 g/ha) | Plant response rating, Com. ragweed ([9]; Rate 64 g/ha) | Plant response rating, Com. ragweed ([9]; Rate 125 g/ha) | Plant response rating, Com. ragweed ([9]; Rate 250 g/ha) | Plant response rating, Com. ragweed ([9]; Rate 500 g/ha) | Plant response rating, Dallisgrass ([10]; PREEMERGENCE, Rate 64 g/ha) | Plant response rating, Dallisgrass ([10]; PREEMERGENCE, Rate 125 g/ha) | Plant response rating, Dallisgrass ([10]; PREEMERGENCE, Rate 250 g/ha) | Plant response rating, Dallisgrass ([10]; PREEMERGENCE, Rate 500 g/ha) | Plant response rating, Goosegrass ([11]; PREEMERGENCE, Rate 64 g/ha) | Plant response rating, Goosegrass ([11]; PREEMERGENCE, Rate 125 g/ha) | Plant response rating, Goosegrass ([11]; PREEMERGENCE, Rate 250 g/ha) | Plant response rating, Goosegrass ([11]; PREEMERGENCE, Rate 500 g/ha) | Plant response rating, Guineagrass ([12]; PREEMERGENCE, Rate 125 g/ha) | Plant response rating, Guineagrass ([12]; PREEMERGENCE, Rate 250 g/ha) | Plant response rating, Large crabgrass ([13]; Rate 64 g/ha) | Plant response rating, Large crabgrass ([13]; Rate 125 g/ha) | Plant response rating, Large crabgrass ([13]; Rate 250 g/ha) | Plant response rating, Large crabgrass ([13]; Rate 500 g/ha) | Plant response rating, Sourgrass ([14]; PREEMERGENCE, Rate 32 g/ha) | Plant response rating, Sourgrass ([14]; PREEMERGENCE, Rate 64 g/ha) | Plant response rating, Sourgrass ([14]; PREEMERGENCE, Rate 125 g/ha) | Plant response rating, Sourgrass ([14]; PREEMERGENCE, Rate 250 g/ha) | Plant response rating, Sourgrass ([14]; PREEMERGENCE, Rate 500 g/ha) | Plant response rating, Surinam grass ([15]; Rate 125 g/ha) | Plant response rating, Surinam grass ([15]; Rate 250 g/ha) | Plant response rating, Surinam grass ([15]; Rate 500 g/ha) | Plant response rating, Tall Mallow ([16]; Rate 64 g/ha) | Plant response rating, Tall Mallow ([16]; Rate 125 g/ha) | Plant response rating, Tall Mallow ([16]; Rate 250 g/ha) | Plant response rating, Tall Mallow ([16]; Rate 500 g/ha)
0: Plant response rating, Field bindweed ([1]; Rate 35 g/ha) | Plant response rating, Purple nutsedge ([4]; Rate 35 g/ha) | Plant response rating, Purple nutsedge ([4]; Rate 70 g/ha) | Plant response rating, Purple nutsedge ([4]; Rate 140 g/ha) | Plant response rating, Soybean (soybean (Glycine max); Rate 35 g/ha) | Plant response rating, Soybean (soybean (Glycine max); Rate 70 g/ha) | Plant response rating, Sandbur [5]

Reference: patent US6525001B1, “Substituted pyrimidine and pyridine herbicides” (Mid-American Commercialization Corporation, priority 1997, dated 2003)
